According to PMC10192418, “High-affinity peptides developed against calprotectin and their application as synthetic ligands in diagnostic assays” (Nature Communications, 2023):
Read-outs that look alike come from different tables or passages of the source. Numbered stars: 1 amine (or outer) side, 2 acyl side, 3 side chain; on linkers, the order of the positions; unused ones are H or OH. Bridge positions count the residues as written; N and C are the ends. Peptide text beside a SMILES is read from it. * marks the point of attachment. 5FAM = O=C1OC2(c3ccc(O)cc3Oc3cc(O)ccc32)c2ccc(C(=O)*)cc21; Pyridine(2,6-diCH2) = c1cc(C[*:1])nc(C[*:2])c1

Molecular target: T1, calprotectin tetramer (recombinant B-RCAL, His6-linker-S100A9-linker-S100A8) (Homo sapiens, UniProt P05109)
T1 construct: we used the recombinant protein without removing the His-tag or cleaving the 8-amino acid linker between the two proteins; co-authors' company
T1 sequence (P05109 with tags, fused parts or gaps): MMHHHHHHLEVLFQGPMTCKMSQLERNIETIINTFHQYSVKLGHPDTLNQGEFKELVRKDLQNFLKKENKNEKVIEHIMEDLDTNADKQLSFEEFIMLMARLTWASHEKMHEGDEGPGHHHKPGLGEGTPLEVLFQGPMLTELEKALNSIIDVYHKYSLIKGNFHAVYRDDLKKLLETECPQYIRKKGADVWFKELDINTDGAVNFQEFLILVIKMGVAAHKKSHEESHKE
Assay: Fluorescence polarization (FP) binding to recombinant calprotectin B-RCAL tetramer in presence of CaCl2
Description: Calprotectin was serially diluted in 20 mM HEPES, 100 mM NaCl, 2 mM CaCl2, pH 7.5, and 1 mM DTT with 0.01% (v/v) Tween-20. Volumes of 16 μL of protein were added to 4 μL of fluorescent peptide (20 nM final concentration) in black 384-well microtiter plates. Fluorescence anisotropy was measured on a microwell plate reader (Infinite M200Pro, Tecan) with filters for excitation at 485 nm and emission at 535 nm. The dissociation constant (Kd) was calculated using a following Eq. (1) using Prism 5 software (GraphPad):1 A=Af+Ab−Af×LT+KD+PT−LT+KD+PT^2−4LTPT/2LT where A is anisotropy, Af and Ab are the anisotropy values for free and bound ligands, respectively. [L]T is the concentration of the total fluorescent ligand and [P]T the concentration of the protein.

[1] = FP, alanine scan of linear peptide 3, 20 nM peptide, 2 mM CaCl2, one measurement, NB = non-binding

Compound: CSCC[C@H](NC(=O)[C@@H]1CCCN1C(=O)[C@H](Cc1ccccc1)NC(=O)[C@H](C)NC(=O)[C@@H](NC(=O)[C@@H]1CSCC(=O)CSC[C@H](NC(=O)[C@H](CCCNC(=N)N)NC(=O)c2ccc3c(c2)C(=O)OC32c3ccc(O)cc3Oc3cc(O)ccc32)C(=O)N2CCC[C@H]2C(=O)N[C@@H](CCC(=O)O)C(=O)N1)C(C)C)C(=O)N[C@@H](Cc1ccccc1)C(=O)N[C@@H](CCC(N)=O)C(=O)N[C@@H](CO)C(=O)N[C@@H](Cc1c[nH]cn1)C(=O)N[C@@H](Cc1c[nH]c2ccccc12)C(=O)N[C@@H](Cc1ccc(O)cc1)C(=O)N[C@@H](CO)C(=O)NCC(N)=O (single isomer, unassigned) [Peptide 3 Isomer 1a]
- Kd: 16.9 nM

Compound: CSCC[C@H](NC(=O)[C@@H]1CCCN1C(=O)[C@H](Cc1ccccc1)NC(=O)[C@H](C)NC(=O)[C@@H](NC(=O)[C@H](CO)NC(=O)[C@H](CCC(=O)O)NC(=O)[C@@H]1CCCN1C(=O)[C@H](CO)NC(=O)[C@H](CCCNC(=N)N)NC(=O)c1ccc2c(c1)C(=O)OC21c2ccc(O)cc2Oc2cc(O)ccc21)C(C)C)C(=O)N[C@@H](Cc1ccccc1)C(=O)N[C@@H](CCC(N)=O)C(=O)N[C@H]1CSCC(=O)CSC[C@@H](C(=O)NCC(N)=O)NC(=O)[C@H](Cc2ccc(O)cc2)NC(=O)[C@H](Cc2c[nH]c3ccccc23)NC(=O)[C@H](Cc2c[nH]cn2)NC1=O (single isomer, unassigned) [Peptide 3 Isomer 1b]
- Kd: 17.9 nM

Compound: CSCC[C@@H]1NC(=O)[C@@H]2CCCN2C(=O)[C@H](Cc2ccccc2)NC(=O)[C@H](C)NC(=O)[C@H](C(C)C)NC(=O)[C@@H]2CSCC(=O)CSC[C@@H](C(=O)NCC(N)=O)NC(=O)[C@H](Cc3ccc(O)cc3)NC(=O)[C@H](Cc3c[nH]c4ccccc34)NC(=O)[C@H](Cc3c[nH]cn3)NC(=O)[C@H](CSCC(=O)CSC[C@H](NC(=O)[C@H](CCCNC(=N)N)NC(=O)c3ccc4c(c3)C(=O)OC43c4ccc(O)cc4Oc4cc(O)ccc43)C(=O)N3CCC[C@H]3C(=O)N[C@@H](CCC(=O)O)C(=O)N2)NC(=O)[C@H](CCC(N)=O)NC(=O)[C@H](Cc2ccccc2)NC1=O (single isomer, unassigned) [Peptide 3 Isomer 2]
- FP increase upon binding to calprotectin (FP, 2 mM CaCl2): 10–15%

Compound: CSCC[C@@H]1NC(=O)[C@@H]2CCCN2C(=O)[C@H](Cc2ccccc2)NC(=O)[C@H](C)NC(=O)[C@H](C(C)C)NC(=O)[C@@H]2CSCC(=O)CSC[C@H](NC(=O)[C@H](CCC(N)=O)NC(=O)[C@H](Cc3ccccc3)NC1=O)C(=O)N[C@@H](Cc1c[nH]cn1)C(=O)N[C@@H](Cc1c[nH]c3ccccc13)C(=O)N[C@@H](Cc1ccc(O)cc1)C(=O)N[C@H](C(=O)NCC(N)=O)CSCC(=O)CSC[C@H](NC(=O)[C@H](CCCNC(=N)N)NC(=O)c1ccc3c(c1)C(=O)OC31c3ccc(O)cc3Oc3cc(O)ccc31)C(=O)N1CCC[C@H]1C(=O)N[C@@H](CCC(=O)O)C(=O)N2 (single isomer, unassigned) [Peptide 3 Isomer 3]
- FP increase upon binding to calprotectin (FP, 2 mM CaCl2): 10–15%

Compound: CC(C)C[C@H](NC(=O)[C@@H]1CCCN1C(=O)[C@H](Cc1ccccc1)NC(=O)[C@H](C)NC(=O)[C@@H](NC(=O)[C@H](CO)NC(=O)[C@H](CCC(=O)O)NC(=O)[C@@H]1CCCN1C(=O)[C@H](CO)NC(=O)[C@H](CCCNC(=N)N)NC(=O)c1ccc2c(c1)C(=O)OC21c2ccc(O)cc2Oc2cc(O)ccc21)C(C)C)C(=O)N[C@@H](Cc1ccccc1)C(=O)N[C@@H](CCC(N)=O)C(=O)N[C@@H](CO)C(=O)N[C@@H](Cc1c[nH]cn1)C(=O)N[C@@H](Cc1c[nH]c2ccccc12)C(=O)N[C@@H](Cc1ccc(O)cc1)C(=O)N[C@@H](CO)C(=O)NCC(N)=O [Met10Leu mutant] (5FAM-RSPESVAFPLFQSHWYSG-NH2)
- Kd (FP, linear peptide 3 with Met10 mutated to leucine, 20 nM peptide, 2 mM CaCl2): 30.6 ± 4.6 nM

Compound: CC[C@H](C)[C@@H]1NC(=O)[C@H](CO)NC(=O)[C@H](Cc2c[nH]c3ccccc23)NC(=O)[C@H](CCCNC(=N)N)NC(=O)[C@@H](NC(=O)[C@H](Cc2ccccc2)NC(=O)[C@@H]2CCCN2C(=O)c2ccc3c(c2)C(=O)OC32c3ccc(O)cc3Oc3cc(O)ccc32)CSCc2cccc(n2)CSC[C@@H](C(=O)N[C@@H](Cc2c[nH]cn2)C(N)=O)NC(=O)[C@H](CC(N)=O)NC(=O)[C@H](CC(=O)O)NC1=O [Peptide 9] (5FAM-PFCRWSIDNCH-NH2; linker 3-10 via Pyridine(2,6-diCH2))
- Kd (from fluorescence anisotropy titration, SI Figure 3): 29000 nM

Compound: CSCC[C@H](NC(=O)[C@@H]1CCCN1C(=O)[C@H](Cc1ccccc1)NC(=O)CNC(=O)[C@@H](NC(=O)[C@H](CO)NC(=O)[C@H](CCC(=O)O)NC(=O)[C@@H]1CCCN1C(=O)[C@H](CO)NC(=O)[C@H](CCCNC(=N)N)NC(=O)c1ccc2c(c1)C(=O)OC21c2ccc(O)cc2Oc2cc(O)ccc21)C(C)C)C(=O)N[C@@H](Cc1ccccc1)C(=O)N[C@@H](CCC(N)=O)C(=O)N[C@@H](CO)C(=O)N[C@@H](Cc1c[nH]cn1)C(=O)N[C@@H](Cc1c[nH]c2ccccc12)C(=O)N[C@@H](Cc1ccc(O)cc1)C(=O)N[C@@H](CO)C(=O)NCC(N)=O [Peptide A7G] (5FAM-RSPESVGFPMFQSHWYSG-NH2)
- Kd [1]: 29 nM

Compound: CSCC[C@H](NC(=O)[C@@H]1CCCN1C(=O)[C@H](Cc1ccccc1)NC(=O)[C@H](C)NC(=O)[C@@H](NC(=O)[C@H](CO)NC(=O)[C@H](C)NC(=O)[C@@H]1CCCN1C(=O)[C@H](CO)NC(=O)[C@H](CCCNC(=N)N)NC(=O)c1ccc2c(c1)C(=O)OC21c2ccc(O)cc2Oc2cc(O)ccc21)C(C)C)C(=O)N[C@@H](Cc1ccccc1)C(=O)N[C@@H](CCC(N)=O)C(=O)N[C@@H](CO)C(=O)N[C@@H](Cc1c[nH]cn1)C(=O)N[C@@H](Cc1c[nH]c2ccccc12)C(=O)N[C@@H](Cc1ccc(O)cc1)C(=O)N[C@@H](CO)C(=O)NCC(N)=O [Peptide E4A] (5FAM-RSPASVAFPMFQSHWYSG-NH2)
- Kd [1]: 26 nM

Compound: CSCC[C@H](NC(=O)[C@@H]1CCCN1C(=O)[C@H](Cc1ccccc1)NC(=O)[C@H](C)NC(=O)[C@@H](NC(=O)[C@H](CO)NC(=O)[C@H](CCC(=O)O)NC(=O)[C@@H]1CCCN1C(=O)[C@H](CO)NC(=O)[C@H](CCCNC(=N)N)NC(=O)c1ccc2c(c1)C(=O)OC21c2ccc(O)cc2Oc2cc(O)ccc21)C(C)C)C(=O)N[C@@H](Cc1ccccc1)C(=O)N[C@@H](CCC(N)=O)C(=O)N[C@@H](CO)C(=O)N[C@@H](Cc1c[nH]cn1)C(=O)N[C@@H](Cc1c[nH]c2ccccc12)C(=O)N[C@@H](Cc1ccc(O)cc1)C(=O)N[C@@H](CO)C(=O)N[C@@H](C)C(N)=O [Peptide G18A] (5FAM-RSPESVAFPMFQSHWYSA-NH2)
- Kd [1]: 31 nM

Compound: CSCC[C@H](NC(=O)[C@@H]1CCCN1C(=O)[C@H](Cc1ccccc1)NC(=O)[C@H](C)NC(=O)[C@@H](NC(=O)[C@H](CO)NC(=O)[C@H](CCC(=O)O)NC(=O)[C@H](C)NC(=O)[C@H](CO)NC(=O)[C@H](CCCNC(=N)N)NC(=O)c1ccc2c(c1)C(=O)OC21c2ccc(O)cc2Oc2cc(O)ccc21)C(C)C)C(=O)N[C@@H](Cc1ccccc1)C(=O)N[C@@H](CCC(N)=O)C(=O)N[C@@H](CO)C(=O)N[C@@H](Cc1c[nH]cn1)C(=O)N[C@@H](Cc1c[nH]c2ccccc12)C(=O)N[C@@H](Cc1ccc(O)cc1)C(=O)N[C@@H](CO)C(=O)NCC(N)=O [Peptide P3A] (5FAM-RSAESVAFPMFQSHWYSG-NH2)
- Kd [1]: 28 nM

Compound: CSCC[C@H](NC(=O)[C@H](C)NC(=O)[C@H](Cc1ccccc1)NC(=O)[C@H](C)NC(=O)[C@@H](NC(=O)[C@H](CO)NC(=O)[C@H](CCC(=O)O)NC(=O)[C@@H]1CCCN1C(=O)[C@H](CO)NC(=O)[C@H](CCCNC(=N)N)NC(=O)c1ccc2c(c1)C(=O)OC21c2ccc(O)cc2Oc2cc(O)ccc21)C(C)C)C(=O)N[C@@H](Cc1ccccc1)C(=O)N[C@@H](CCC(N)=O)C(=O)N[C@@H](CO)C(=O)N[C@@H](Cc1c[nH]cn1)C(=O)N[C@@H](Cc1c[nH]c2ccccc12)C(=O)N[C@@H](Cc1ccc(O)cc1)C(=O)N[C@@H](CO)C(=O)NCC(N)=O [Peptide P9A] (5FAM-RSPESVAFAMFQSHWYSG-NH2)
- Kd [1]: 30 nM

Compound: CSCC[C@H](NC(=O)[C@@H]1CCCN1C(=O)[C@H](Cc1ccccc1)NC(=O)[C@H](C)NC(=O)[C@@H](NC(=O)[C@H](CO)NC(=O)[C@H](CCC(=O)O)NC(=O)[C@@H]1CCCN1C(=O)[C@H](CO)NC(=O)[C@H](CCCNC(=N)N)NC(=O)c1ccc2c(c1)C(=O)OC21c2ccc(O)cc2Oc2cc(O)ccc21)C(C)C)C(=O)N[C@@H](Cc1ccccc1)C(=O)N[C@@H](C)C(=O)N[C@@H](CO)C(=O)N[C@@H](Cc1c[nH]cn1)C(=O)N[C@@H](Cc1c[nH]c2ccccc12)C(=O)N[C@@H](Cc1ccc(O)cc1)C(=O)N[C@@H](CO)C(=O)NCC(N)=O [Peptide Q12A] (5FAM-RSPESVAFPMFASHWYSG-NH2)
- Kd [1]: 27 nM

Compound: CSCC[C@H](NC(=O)[C@@H]1CCCN1C(=O)[C@H](Cc1ccccc1)NC(=O)[C@H](C)NC(=O)[C@@H](NC(=O)[C@H](CO)NC(=O)[C@H](CCC(=O)O)NC(=O)[C@@H]1CCCN1C(=O)[C@H](CO)NC(=O)[C@H](C)NC(=O)c1ccc2c(c1)C(=O)OC21c2ccc(O)cc2Oc2cc(O)ccc21)C(C)C)C(=O)N[C@@H](Cc1ccccc1)C(=O)N[C@@H](CCC(N)=O)C(=O)N[C@@H](CO)C(=O)N[C@@H](Cc1c[nH]cn1)C(=O)N[C@@H](Cc1c[nH]c2ccccc12)C(=O)N[C@@H](Cc1ccc(O)cc1)C(=O)N[C@@H](CO)C(=O)NCC(N)=O [Peptide R1A] (5FAM-ASPESVAFPMFQSHWYSG-NH2)
- Kd [1]: 32 nM
